Results taken from patent publication EP4667458A1 (Kanaph Therapeutics Inc., priority 2023, dated 2024).

Molecular target: T1, KRAS^G12C::SOS1 (Homo sapiens, UniProt Q07889)
T1 sequence (Q07889 1-1333): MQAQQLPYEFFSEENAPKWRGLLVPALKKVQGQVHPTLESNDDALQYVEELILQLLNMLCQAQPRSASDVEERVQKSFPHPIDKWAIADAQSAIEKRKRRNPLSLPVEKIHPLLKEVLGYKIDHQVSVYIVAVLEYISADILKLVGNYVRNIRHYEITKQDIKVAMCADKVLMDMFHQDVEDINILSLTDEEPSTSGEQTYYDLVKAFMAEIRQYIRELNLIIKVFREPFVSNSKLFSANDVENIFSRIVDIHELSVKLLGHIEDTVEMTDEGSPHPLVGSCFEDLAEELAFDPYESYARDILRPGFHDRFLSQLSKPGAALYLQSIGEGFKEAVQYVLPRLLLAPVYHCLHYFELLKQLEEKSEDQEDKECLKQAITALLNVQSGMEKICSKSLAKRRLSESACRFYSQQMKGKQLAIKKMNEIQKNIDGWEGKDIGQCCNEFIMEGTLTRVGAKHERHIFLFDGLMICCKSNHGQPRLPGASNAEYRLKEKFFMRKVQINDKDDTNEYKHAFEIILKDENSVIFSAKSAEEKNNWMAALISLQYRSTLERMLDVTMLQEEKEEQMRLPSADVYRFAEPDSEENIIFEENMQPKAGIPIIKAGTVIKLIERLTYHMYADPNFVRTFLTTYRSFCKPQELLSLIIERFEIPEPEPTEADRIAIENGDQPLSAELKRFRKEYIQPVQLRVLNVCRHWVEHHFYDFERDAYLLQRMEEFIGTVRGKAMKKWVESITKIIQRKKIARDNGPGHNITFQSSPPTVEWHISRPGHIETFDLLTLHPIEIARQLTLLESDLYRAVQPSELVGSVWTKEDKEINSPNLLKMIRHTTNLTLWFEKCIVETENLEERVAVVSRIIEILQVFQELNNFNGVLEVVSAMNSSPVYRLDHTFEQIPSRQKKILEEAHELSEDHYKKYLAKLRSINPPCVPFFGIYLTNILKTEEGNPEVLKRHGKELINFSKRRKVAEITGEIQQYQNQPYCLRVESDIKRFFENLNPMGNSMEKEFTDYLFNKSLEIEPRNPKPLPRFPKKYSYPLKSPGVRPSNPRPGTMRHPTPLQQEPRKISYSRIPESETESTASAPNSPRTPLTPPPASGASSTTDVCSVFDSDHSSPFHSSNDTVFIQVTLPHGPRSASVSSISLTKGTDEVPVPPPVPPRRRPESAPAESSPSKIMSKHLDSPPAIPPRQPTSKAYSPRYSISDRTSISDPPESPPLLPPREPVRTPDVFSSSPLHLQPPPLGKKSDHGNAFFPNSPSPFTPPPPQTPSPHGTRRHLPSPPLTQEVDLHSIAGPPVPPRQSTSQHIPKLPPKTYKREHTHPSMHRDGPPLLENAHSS
Assay: KRAS G12C::SOS1 protein-protein interaction (PPI) inhibition assay (HTRF binding kit)
Details: not given

Compound	IC50 [nM]
C[C@@H](NC(=O)c1ccc(=O)n(-c2cccc(C(=O)N3CCN(C)CC3)c2)n1)c1cc(N)cc(C(F)(F)F)c1 [Example 255, N-[(1R)-1-[3-amino-5-(trifluoromethyl)phenyl]ethyl]-1-[3-(4-methylpiperazine-1-carbonyl)phenyl]-6-oxo-pyridazine-3-carboxamide]	< 1000
CNc1cc(=O)n(-c2ccccc2F)nc1C(=O)N[C@H](C)c1cc(N)cc(C(F)(F)F)c1 [Example 383, N-[(1R)-1-[3-amino-5-(trifluoromethyl)phenyl]ethyl]-1-(2-fluorophenyl)-4-(methylamino)-6-oxo-pyridazine-3-carboxamide]	< 1000
C[C@@H](NC(=O)c1ccc(=O)n(-c2ccncc2F)n1)c1cccc(C(F)(F)CO)c1F [Example 361, N-[(1R)-1-[3-(1,1-difluoro-2-hydroxy-ethyl)-2-fluoro-phenyl]ethyl]-1-(3-fluoro-4-pyridyl)-6-oxo-pyridazine-3-carboxamide]	< 1000
C[C@@H](NC(=O)c1ccc(=O)n(-c2cccc(CO)c2)n1)c1cccc(C(F)(F)CO)c1F [Example 170, N-[(1R)-1-[3-(1,1-difluoro-2-hydroxy-ethyl)-2-fluoro-phenyl]ethyl]-1-[3-(hydroxymethyl)phenyl]-6-oxo-pyridazine-3-carboxamide]	< 1000
C[C@@H](NC(=O)c1ccc(=O)n(-c2ccc3cnn(C)c3c2F)n1)c1cc(N)cc(C(F)(F)F)c1 [Example 240, N-[(1R)-1-[3-amino-5-(trifluoromethyl)phenyl]ethyl]-1-(7-fluoro-1-methyl-1H-indazol-6-yl)-6-oxo-1,6-dihydropyridazine-3-carboxamide]	< 1000
CNC(=O)c1cccc(-n2nc(C(=O)N[C@H](C)c3cc(N)cc(C(F)(F)F)c3)ccc2=O)c1F [Example 231, (R)-N-(1-(3-amino-5-(trifluoromethyl)phenyl)ethyl)-1-(2-fluoro-3-(methylcarbamoyl)phenyl)-6-oxo-1,6-dihydropyridazine-3-carboxamide]	< 1000
CC(=O)Nc1cc(=O)n(-c2ccccc2)nc1C(=O)N[C@H](C)c1cc(N)cc(C(F)(F)F)c1 [Example 313, 4-acetamido-N-[(1R)-1-[3-amino-5-(trifluoromethyl)phenyl]ethyl]-6-oxo-1-phenyl-pyridazine-3-carboxamide]	< 1000
C[C@@H](NC(=O)c1ccc(=O)n(-c2cc(-c3cnnn3C)ccc2F)n1)c1cccc(C(F)(F)CO)c1F [Example 372, N-[(1R)-1-[3-(1,1-difluoro-2-hydroxy-ethyl)-2-fluoro-phenyl]ethyl]-1-[2-fluoro-5-(3-methyltriazol-4-yl)phenyl]-6-oxo-pyridazine-3-carboxamide]	< 1000
C[C@@H](NC(=O)c1ccc(=O)n(-c2ccccc2F)n1)c1cccc(C(F)(F)C(C)(C)O)c1F [Example 192, N-[(1R)-1-[3-(1,1-difluoro-2-hydroxy-2-methyl-propyl)-2-fluoro-phenyl]ethyl]-1-(2-fluorophenyl)-6-oxo-pyridazine-3-carboxamide]	< 1000
C[C@@H](NC(=O)c1ccc(=O)n(-c2ccc(F)cc2F)n1)c1cccc(C(F)(F)CO)c1F [Example 352, N-[(1R)-1-[3-(1,1-difluoro-2-hydroxy-ethyl)-2-fluoro-phenyl]ethyl]-1-(2,4-difluorophenyl)-6-oxo-pyridazine-3-carboxamide]	< 1000
CNCc1ccc(Cl)cc1-c1ccc([C@@H](C)NC(=O)c2ccc(=O)n(-c3cnn(C)c3)n2)s1 [Example 292, (R)-N-(1-(5-(5-chloro-2-((methylamino)methyl)phenyl)thiophen-2-yl)ethyl)-1-(1-methyl-1H-pyrazol-4-yl)-6-oxo-1,6-dihydropyridazine-3-carboxamide]	< 1000
C[C@@H](NC(=O)c1cc(N)c(=O)n(-c2ccccc2)n1)c1cc(N)cc(C(F)(F)F)c1 [Example 213, 5-amino-N-[(1R)-1-[3-amino-5-(trifluoromethyl)phenyl]ethyl]-6-oxo-1-phenyl-pyridazine-3-carboxamide]	< 1000
C[C@@H](NC(=O)c1ccc(=O)n(-c2ccccc2F)n1)c1cccc(-n2ccc(=O)cc2)c1 [Example 304]	> 10000
CCNC(=O)c1cccc(-n2nc(C(=O)N[C@H](C)c3cc(N)cc(C(F)(F)F)c3)ccc2=O)c1F [Example 234, (R)-N-(1-(3-amino-5-(trifluoromethyl)phenyl)ethyl)-1-(3-(ethylcarbamoyl)-2-fluorophenyl)-6-oxo-1,6-dihydropyridazine-3-carboxamide]	< 1000
C[C@@H](NC(=O)c1ccc(=O)n(-c2cccc(-c3nncn3C)c2)c1)c1cc(N)cc(C(F)(F)F)c1 [Example 348, N-[(1R)-1-[3-amino-5-(trifluoromethyl)phenyl]ethyl]-1-[3-(4-methyl-1,2,4-triazol-3-yl)phenyl]-6-oxo-pyridine-3-carboxamide]	< 1000
CNCc1cc(Cl)ccc1-c1ccc([C@@H](C)NC(=O)c2ccc(=O)n(-c3ccccc3F)c2)s1 [Example 282, N-[(1R)-1-[5-[4-chloro-2-(methylaminomethyl)phenyl]-2-thienyl]ethyl]-1-(2-fluorophenyl)-6-oxo-pyridine-3-carboxamide]	< 1000
C[C@@H](NC(=O)c1ccc(=O)n(-c2ccc3c(c2)COC3)n1)c1cc(N)cc(C(F)(F)F)c1 [Example 208, N-[(1R)-1-[3-amino-5-(trifluoromethyl)phenyl]ethyl]-1-(1,3-dihydroisobenzofuran-5-yl)-6-oxo-pyridazine-3-carboxamide]	< 1000
CNCc1cc2c(cc1-c1ccc([C@@H](C)NC(=O)c3ccc(=O)n(-c4ccccc4F)n3)s1)CCC2 [Example 274, 1-(2-fluorophenyl)-N-[(1R)-1-[5-[6-(methylaminomethyl)indan-5-yl]-2-thienyl]ethyl]-6-oxo-pyridazine-3-carboxamide]	< 1000
CNCc1ccc(C)cc1-c1ccc([C@@H](C)NC(=O)c2ccc(=O)n(-c3cccnc3F)n2)s1 [Example 402, 1-(2-fluoropyridin-3-yl)-N-[(1R)-1-(5-{5-methyl-2-[(methylamino)methyl]phenyl}thiophen-2-yl)ethyl]-6-oxo-1,6-dihydropyridazine-3-carboxamide]	< 1000
CNCc1cc(F)ccc1-c1ccc([C@@H](C)NC(=O)c2ccc(=O)n(-c3ccccc3F)c2)s1 [Example 280, N-[(1R)-1-[5-[4-fluoro-2-(methylaminomethyl)phenyl]-2-thienyl]ethyl]-1-(2-fluorophenyl)-6-oxo-pyridine-3-carboxamide]	< 1000
CC(C)c1cccc([C@@H](C)NC(=O)c2ccc(=O)n(-c3ccccc3)n2)c1 [Example 201, N-[(1R)-1-(3-isopropylphenyl)ethyl]-6-oxo-1-phenyl-pyridazine-3-carboxamide]	< 1000
C[C@@H](NC(=O)c1ccc(=O)n(-c2cccc(-c3cnnn3C)c2)c1)c1cc(N)cc(C(F)(F)F)c1 [Example 326, N-[(1R)-1-[3-amino-5-(trifluoromethyl)phenyl]ethyl]-1-[3-(3-methyltriazol-4-yl)phenyl]-6-oxo-pyridine-3-carboxamide]	< 1000
COCCn1nc(C(=O)N[C@H](C)c2cc(N)cc(C(F)(F)F)c2)ccc1=O [Example 222, N-[(1R)-1-[3-amino-5-(trifluoromethyl)phenyl]ethyl]-1-(2-methoxyethyl)-6-oxo-pyridazine-3-carboxamide]	< 1000
C[C@@H](NC(=O)c1ccc(=O)n(-c2ccccc2F)n1)c1ccc(-c2cc(F)ccc2CNCCO)s1 [Example 300, N-[(1R)-1-[5-[5-fluoro-2-[(2-hydroxyethylamino)methyl]phenyl]-2-thienyl]ethyl]-1-(2-fluorophenyl)-6-oxo-pyridazine-3-carboxamide]	< 1000
C[C@@H](NC(=O)c1ccc(=O)n(-c2cnn(C)c2)c1)c1cccc(C(F)(F)CO)c1F [Example 164, N-[(1R)-1-[3-(1,1-difluoro-2-hydroxy-ethyl)-2-fluoro-phenyl]ethyl]-1-(1-methylpyrazol-4-yl)-6-oxo-pyridine-3-carboxamide]	< 1000

Same assay, conditions: read-out: KRAS ^G12C::SOS1 PPI assay (IC50 range, Grade); maximum concentration 3 µM, 8 concentrations, three replicates

Compound	IC50 [nM]
N-[(1R)-1-[3-amino-5-(trifluoromethyl)phenyl]ethyl]-1-(4-fluorophenyl)-6-oxo-pyridazine-3-carboxamide [Example 172]	< 1000
